Drawing on US11274090B2, “P300/CBP HAT inhibitors” (Constellation Pharmaceuticals, Inc., priority 2018, dated 2022), this text covers IC50 for 21 molecules.

pIC50: −log10 of the molar value. Where only a bound is given, the exact number is not on record here.

p300 HAT domain (residues 1287-1666), sequence (Q09472 1287-1666): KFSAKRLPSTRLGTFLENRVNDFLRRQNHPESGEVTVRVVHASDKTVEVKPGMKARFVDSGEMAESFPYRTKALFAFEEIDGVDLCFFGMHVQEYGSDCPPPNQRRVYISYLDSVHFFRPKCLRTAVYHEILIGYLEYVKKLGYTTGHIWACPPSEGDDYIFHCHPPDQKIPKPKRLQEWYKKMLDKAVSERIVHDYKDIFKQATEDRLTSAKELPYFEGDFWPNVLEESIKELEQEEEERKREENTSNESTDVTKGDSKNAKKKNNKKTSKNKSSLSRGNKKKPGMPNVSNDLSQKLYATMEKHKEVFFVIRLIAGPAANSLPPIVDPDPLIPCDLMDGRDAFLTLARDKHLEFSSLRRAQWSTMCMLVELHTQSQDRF

This experiment addresses p300 HAT domain (residues 1287-1666) (Homo sapiens (Human), UniProt Q09472). Nature of the experiment: p300 HAT SPA assay (scintillation proximity assay, acetylation of biotinylated H3(1-21) peptide). It counts as biochemical. Particulars: average of at least 2 replicate titrations. The method in brief: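 Scintillation proximity readout of acetylated biotin-H3(1-21) captured on streptavidin plates after 1.5 hr at RT; enzyme was Ni2+/anion-exchange-purified HAT domain in 20 mM Hepes pH 7.5. Inhibitor IC50s calculated from the data.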
(SPA uses beads or plates that emit light when radiolabelled molecules are held near them.)
Turning to `CC(CNC(C(=O)Nc1ccc(-c2cn[nH]c2)cn1)c1ccccc1)c1ccc(C#N)cc1` (single isomer, unassigned) [104 Isomer 1], the pIC50 was 5.86.

`CC(CNC(C(=O)Nc1ccc(-c2cn[nH]c2)cn1)c1ccccc1)c1ccc(C#N)cc1` (single isomer, unassigned) [104 Isomer 3]: the pIC50 was 6.38. This pIC50 lies 0.52 log units higher than the previous one.

The molecule `CC(CNC(C(=O)Nc1ccc(-c2cn[nH]c2)cn1)c1ccccc1)c1ccc(C#N)cc1` (single isomer, unassigned) [104 Isomer 4] showed a pIC50 of 5.99.

The molecule `C[C@H](CNC(C(=O)Nc1ccc(-c2ccn(C)c(=O)c2)cn1)c1ccccc1)c1ccc(C#N)cc1` (single isomer, unassigned) [105 Isomer 1] showed a pIC50 below 5.70.

Regarding `C[C@H](CNC(C(=O)Nc1ccc(-c2cc(=O)n(C)cn2)cn1)c1ccccc1)c1ccc(C#N)cc1` (single isomer, unassigned) [106 Isomer 1], the pIC50 was below 5.70.

Molecule `C[C@H](CNC(C(=O)Nc1ccc(-c2cc(=O)n(C)cn2)cn1)c1ccccc1)c1ccc(C#N)cc1` (single isomer, unassigned) [106 Isomer 2] showed a pIC50 of 7.59.

As to `Cc1nc(-c2ccc(NC(=O)C(NC[C@@H](C)c3ccc(C#N)cc3)c3ccccc3)nc2)no1` (single isomer, unassigned) [107 Isomer 1], the pIC50 is below 5.70.

`Cc1nc(-c2ccc(NC(=O)C(NC[C@@H](C)c3ccc(C#N)cc3)c3ccccc3)nc2)no1` (single isomer, unassigned) [107 Isomer 2] showed a pIC50 of 7.14.

Molecule `CC(CNC(C(=O)Nc1ccc(N2CCN(C)S2(=O)=O)cn1)c1ccccc1)c1ccc(C#N)cc1` (single isomer, unassigned) [108 Isomer 1] had a pIC50 below 5.70.

As for `CC(CNC(C(=O)Nc1ccc(N2CCN(C)S2(=O)=O)cn1)c1ccccc1)c1ccc(C#N)cc1` (single isomer, unassigned) [108 Isomer 2], the pIC50 was 7.63.

For the molecule `CC(CNC(C(=O)Nc1ccc(N2CCN(C)S2(=O)=O)cn1)c1ccccc1)c1ccc(C#N)cc1` (single isomer, unassigned) [108 Isomer 3], the pIC50 is below 5.70.

In turn, `CC(CNC(C(=O)Nc1ccc(N2CCN(C)S2(=O)=O)cn1)c1ccccc1)c1ccc(C#N)cc1` (single isomer, unassigned) [108 Isomer 4] gave a pIC50 below 5.70.

The molecule `C[C@H](CNC(C(=O)Nc1ccc(C2CC(=O)N(C)C2)cn1)c1ccccc1)c1ccc(C#N)cc1` (single isomer, unassigned) [109 Isomer 1] showed a pIC50 below 5.70.

In turn, `C[C@H](CNC(C(=O)Nc1ccc(C2CC(=O)N(C)C2)cn1)c1ccccc1)c1ccc(C#N)cc1` (single isomer, unassigned) [109 Isomer 2] showed a pIC50 below 5.70.

In turn, `C[C@H](CNC(C(=O)Nc1ccc(C2CC(=O)N(C)C2)cn1)c1ccccc1)c1ccc(C#N)cc1` (single isomer, unassigned) [109 Isomer 3] had a pIC50 of 7.21.

`Cc1c(-c2ccc(NC(=O)C(NC[C@@H](C)c3ccc(C#N)cc3)c3ccccc3)nc2)cnn1C` (single isomer, unassigned) [114 Isomer 1] had a pIC50 of 6.28.

In turn, `Cc1cc(NC(=O)C(NC[C@@H](C)c2ccc(C#N)cc2)c2ccccc2)ncc1-c1cnn(C)c1` (single isomer, unassigned) [115 Isomer 1] showed a negative logarithm of the IC50 (pIC50) below 5.70.

`Cn1cc(-c2ccc(NC(=O)C(NCCc3ccc(C#N)cc3)c3cccc(C#N)c3)nc2)cn1` (single isomer, unassigned) [116 Isomer 1] showed a pIC50 of 6.35.

With `Cn1cc(-c2ccc(NC(=O)C(NCCc3ccc(C#N)cc3)c3cccc(C#N)c3)nc2)cn1` (single isomer, unassigned) [116 Isomer 2], the negative-log IC50 (pIC50) is below 5.70.

For `Cn1cc(-c2ccc(NC(=O)C(NCCc3ccc(C#N)cc3)c3cccc(C(F)(F)F)c3)nc2)cn1` (single isomer, unassigned) [117 Isomer 1], the pIC50 is below 5.70.

`Cn1cc(-c2ccc(NC(=O)C(NCCc3ccc(C#N)cc3)c3cccc(C(F)(F)F)c3)nc2)cn1` (single isomer, unassigned) [117 Isomer 2] showed a pIC50 below 5.70.

Broadly, the pIC50 is the IC50 on a negative log10 scale, so that one unit is a factor of ten. Low readings indicate a high IC50, high ones a low IC50.
